Measured values published in patent US20240287154A1, “MC3R AGONIST PEPTIDES” (The Regents of the University of Michigan, priority 2021, published 2024).
Non-standard residues stand in square brackets, D forms with d. Residues, ends and D or L forms follow the SMILES beside them. Bip = N[C@@H](Cc1ccc(-c2ccccc2)cc1)C(=O)O; Phe(4-Cl) = N[C@@H](Cc1ccc(Cl)cc1)C(=O)O; Phe(4-I) = N[C@@H](Cc1ccc(I)cc1)C(=O)O; dNle = CCCC[C@@H](N)C(=O)O; Nle = CCCC[C@H](N)C(=O)O; dNMeA = CN[C@H](C)C(=O)O; Aib = CC(C)(N)C(=O)O

Target: human MC4R (Homo sapiens, UniProt P32245)
Sequence (P32245 whole entry): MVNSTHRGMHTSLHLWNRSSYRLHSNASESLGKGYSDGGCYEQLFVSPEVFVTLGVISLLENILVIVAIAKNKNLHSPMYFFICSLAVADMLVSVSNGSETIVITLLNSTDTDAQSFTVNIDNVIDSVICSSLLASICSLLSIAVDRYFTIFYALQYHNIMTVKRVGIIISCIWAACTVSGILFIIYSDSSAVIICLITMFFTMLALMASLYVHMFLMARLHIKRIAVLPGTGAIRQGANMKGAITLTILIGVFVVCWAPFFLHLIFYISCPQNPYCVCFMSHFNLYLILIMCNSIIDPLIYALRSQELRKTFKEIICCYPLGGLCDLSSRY
Assay: Intracellular cAMP levels in live cells, MC3R selectivity relative to MC4R
Assay type: cell-based
Details: cAMP assays in human MC3R and human MC4R stable cell lines
Procedure: The stable cell lines were grown and maintained in selection media consisting of Dulbecco's modified Eagle media (DMEM) with 4.5 g/l D-glucose, and 4 mM L-glutamine (Thermo Fisher Scientific, Waltham, MA), supplemented with 10% fetal bovine serum, 100 units/ml penicillin, 100 μg/ml streptomycin, 2.5 μg/ml amphotericin B, 200 μg/ml hygromycin B (for positive selection of the GScAMP22f luciferase reporter), and Geneticin™ (G418) 700 μg/ml (for MC3R or MC4R selection). Actual serum concentration during the assay is estimated to be about 1%. Cell line identity is routinely verified by qPCR and MC3R- and MC4R-specific oligonucleotides.
The assay for the determination of the CAMP response in live cells was described previously. […] Ccells were seeded at a density of 20,000 cells per well using 384-well poly-D lysine-coated, clear bottom, and black-wall assay plates (Corning Inc. Corning, NJ). Cells were allowed to attach to the plates for 18 to 24 h after which growth media was removed and 20 ul of 4% D-luciferin (Promega) in CO2 independent, serum-free medium (Thermo Fisher Scientific) was added to each well. […] Intracellular cAMP levels were measured using an FDSS 7000EX Functional Drug Screening System (Hamamatsu Photonics, Hamamatsu, Japan) in the Center for Chemical Genomics at the Life Sciences Institute. This instrument allowed the in-line addition of test-peptides and receptor agonists while simultaneously acquiring the luminescence signal from live cells. […] A submaximal forskolin (20 μM) concentration was also included to serve as a normalization reference to account for cell number variations and differences in assay transducer efficiency between cell lines.
With this set up it was possible to evaluate the direct agonist effect of the test-peptides on the MC3R and MC4R cell lines during measurement window 1, while the antagonist profile in the presence of EC90 α-MSH was determined on measurement window 2. […] EC50 or IC50 potency values were determined by non-linear regression by fitting the data to a sigmoid four-parameter variable slope model using the GraphPad Prism version 8.4 software package (San Diego CA).

| SMILES | MC3R selectivity (relative to MC4R) |
| --- | --- |
| CCCC[C@H](NC(=O)[C@@H](NC(=O)[C@H](N)Cc1ccc(O)cc1)C(C)C)C(=O)N[C@H](C)C(=O)N[C@@H](Cc1c[nH]cn1)C(=O)N[C@@H](Cc1ccccc1)C(=O)N[C@@H](CCCNC(=N)N)C(=O)N[C@H](Cc1c[nH]c2ccccc12)C(=O)N[C@@H](CC(=O)O)C(N)=O [CTX-1142, D-Tyr-Val-Nle-D-Ala-His-Phe-Arg-D-Trp-Asp] (H-[dY]V[Nle][dA]HFR[dW]D-NH2) | 54 |
| CCCC[C@H](NC(C)=O)C(=O)NC(C)(C)C(=O)N[C@@H](Cc1c[nH]cn1)C(=O)N[C@@H](Cc1ccccc1)C(=O)N[C@@H](CCCNC(=N)N)C(=O)N[C@H](Cc1c[nH]c2ccccc12)C(=O)N[C@@H](CC(=O)O)C(=O)N[C@@H](CCCNC(=N)N)C(=O)N[C@@H](Cc1ccccc1)C(=O)NCC(=O)O [CTX-1143, Nle-Aib-His-Phe-Arg-D-Trp-Asp-Arg-Phe-Gly] (Ac-[Nle][Aib]HFR[dW]DRFG-OH) | 3544 |
| CCCC[C@H](NC(C)=O)C(=O)N[C@H](C)C(=O)N[C@@H](Cc1c[nH]cn1)C(=O)N[C@@H](Cc1ccccc1)C(=O)N[C@@H](CCCNC(=N)N)C(=O)N[C@H](Cc1c[nH]c2ccccc12)C(=O)N[C@@H](CC(=O)O)C(=O)N[C@@H](CCCNC(=N)N)C(=O)N[C@H](Cc1ccccc1)C(=O)NCC(=O)O [CTX-1145, Nle-D-Ala-His-Phe-Arg-D-Trp-Asp-Arg-D-Phe-Gly] (Ac-[Nle][dA]HFR[dW]DR[dF]G-OH) | 535 |
| CCCC[C@H](NC(=O)[C@@H](NC(=O)CNC(=O)COCCOCCNC(=O)CNC(=O)CCc1ccc(I)cc1)C(C)C)C(=O)N[C@H](C)C(=O)N[C@@H](Cc1c[nH]cn1)C(=O)N[C@@H](Cc1ccccc1)C(=O)N[C@@H](CCCNC(=N)N)C(=O)N[C@H](Cc1c[nH]c2ccccc12)C(=O)N[C@@H](CC(=O)O)C(=O)N[C@@H](CCCNC(=N)N)C(=O)N[C@@H](Cc1ccccc1)C(=O)NCC(=O)O [CTX-1150, Gly-Val-Nle-D-Ala-His-Phe-Arg-D-Trp-Asp-Arg-Phe-Gly] | 577 |
| CCCC[C@H](NC(=O)[C@@H](NC(=O)[C@@H](Cc1ccc(O)cc1)NC(=O)CNC(=O)COCCOCCNC(=O)CNC(=O)CCc1ccc(I)cc1)C(C)C)C(=O)N[C@H](C)C(=O)N[C@@H](Cc1c[nH]cn1)C(=O)N[C@@H](Cc1ccccc1)C(=O)N[C@@H](CCCNC(=N)N)C(=O)N[C@H](Cc1c[nH]c2ccccc12)C(=O)N[C@@H](CC(=O)O)C(=O)N[C@H](CCCNC(=N)N)C(=O)N[C@@H](Cc1ccccc1)C(=O)NCC(=O)O [CTX-1156, Gly-D-Tyr-Val Nle-D-Ala-His-Phe-Arg-D-Trp-Asp-D-Arg-Phe-Gly] | 86 |
| CCCC[C@H](NC(C)=O)C(=O)N[C@H](C)C(=O)N[C@@H](Cc1c[nH]cn1)C(=O)N[C@@H](Cc1ccccc1)C(=O)N[C@@H](CCCNC(=N)N)C(=O)N[C@H](Cc1c[nH]c2ccccc12)C(=O)N[C@@H](CC(=O)O)C(=O)N[C@@H](CCCNC(=N)N)C(=O)N[C@@H](Cc1ccccc1)C(N)=O [CTX-1158, Nle-D-Ala-His-Phe-Arg-D-Trp-Asp-Arg-Phe] (Ac-[Nle][dA]HFR[dW]DRF-NH2) | 535 |
| CCCC[C@H](NC(C)=O)C(=O)N[C@H](C)C(=O)N[C@@H](Cc1c[nH]cn1)C(=O)N[C@@H](Cc1ccccc1)C(=O)N[C@@H](CCCNC(=N)N)C(=O)N[C@H](Cc1c[nH]c2ccccc12)C(=O)N[C@@H](CC(=O)O)C(=O)N[C@@H](CCCNC(=N)N)C(=O)N[C@H](Cc1ccccc1)C(N)=O [CTX-1159, Nle-D-Ala-His-Phe-Arg-D-Trp-Asp-Arg-D-Phe] (Ac-[Nle][dA]HFR[dW]DR[dF]-NH2) | 213 |
| CCCC[C@H](NC(C)=O)C(=O)N[C@H](C)C(=O)N[C@@H](Cc1c[nH]cn1)C(=O)N[C@@H](Cc1ccccc1)C(=O)N[C@@H](CCCNC(=N)N)C(=O)N[C@H](Cc1c[nH]c2ccccc12)C(=O)N[C@@H](CC(=O)O)C(=O)N[C@@H](CCCNC(=N)N)C(=O)N[C@H](Cc1ccccc1)C(=O)N[C@@H](CCCCN)C(=O)O [CTX-1160, Nle-D-Ala-His-Phe-Arg-D-Trp-Asp-Arg-D-Phe-Lys] (Ac-[Nle][dA]HFR[dW]DR[dF]K-OH) | 1,257 |
| CCCC[C@H](NC(C)=O)C(=O)N[C@H](C)C(=O)N[C@@H](Cc1c[nH]cn1)C(=O)N[C@@H](Cc1ccccc1)C(=O)N[C@@H](CCCNC(=N)N)C(=O)N[C@H](Cc1c[nH]c2ccccc12)C(=O)N[C@@H](CC(=O)O)C(=O)N[C@@H](CCCNC(=N)N)C(N)=O [CTX-1163, Nle-D-Ala-His-Phe-Arg-D-Trp-Asp-Arg] (Ac-[Nle][dA]HFR[dW]DR-NH2) | 282 |
| CCCC[C@H](NC(C)=O)C(=O)N[C@H](C)C(=O)N[C@@H](Cc1c[nH]cn1)C(=O)N[C@@H](Cc1ccc(Cl)cc1)C(=O)N[C@@H](CCCNC(=N)N)C(=O)N[C@H](Cc1c[nH]c2ccccc12)C(=O)N[C@@H](CC(=O)O)C(=O)N[C@@H](CCCNC(=N)N)C(=O)N[C@@H](Cc1ccccc1)C(=O)NCC(=O)O [CTX-1166, Nle-D-Ala-His-Phe(4-Cl)-Arg-D-Trp-Asp-Arg-Phe-Gly] (Ac-[Nle][dA]H[Phe(4-Cl)]R[dW]DRFG-OH) | 3099 |
| CCCC[C@H](NC(C)=O)C(=O)N[C@H](C)C(=O)N[C@@H](Cc1c[nH]cn1)C(=O)N[C@@H](Cc1ccc(-c2ccccc2)cc1)C(=O)N[C@@H](CCCNC(=N)N)C(=O)N[C@H](Cc1c[nH]c2ccccc12)C(=O)N[C@@H](CC(=O)O)C(=O)N[C@@H](CCCNC(=N)N)C(=O)N[C@@H](Cc1ccccc1)C(=O)NCC(N)=O [CTX-1168, Nle-D-Ala-His-Bip-Arg-D-Trp-Asp-Arg-Phe-Gly] (Ac-[Nle][dA]H[Bip]R[dW]DRFG-NH2) | 485 |
| CCCC[C@H](NC(C)=O)C(=O)N[C@H](C)C(=O)N[C@@H](Cc1c[nH]cn1)C(=O)N[C@@H](Cc1ccc(I)cc1)C(=O)N[C@@H](CCCNC(=N)N)C(=O)N[C@H](Cc1c[nH]c2ccccc12)C(=O)N[C@@H](CC(=O)O)C(=O)N[C@@H](CCCNC(=N)N)C(N)=O [CTX-1170, Nle-D-Ala-His-Phe(4-I)-Arg-D-Trp-Asp-Arg] (Ac-[Nle][dA]H[Phe(4-I)]R[dW]DR-NH2) | 67 |
| CCCC[C@H](NC(=O)[C@@H](NC(=O)[C@H](N)Cc1ccc(O)cc1)C(C)C)C(=O)N[C@H](C)C(=O)N[C@@H](Cc1c[nH]cn1)C(=O)N[C@@H](Cc1ccc(I)cc1)C(=O)N[C@@H](CCCNC(=N)N)C(=O)N[C@H](Cc1c[nH]c2ccccc12)C(=O)N[C@@H](CC(=O)O)C(N)=O [CTX-1171, D-Tyr-Val-Nle-D-Ala-His-Phe(4-I)-Arg-D-Trp-Asp] (H-[dY]V[Nle][dA]H[Phe(4-I)]R[dW]D-NH2) | 234 |
| CCCC[C@H](NC(C)=O)C(=O)N[C@@H](C(=O)N[C@@H](Cc1c[nH]cn1)C(=O)N[C@@H](Cc1ccccc1)C(=O)N[C@@H](CCCNC(=N)N)C(=O)N[C@H](Cc1c[nH]c2ccccc12)C(=O)N[C@@H](CC(=O)O)C(=O)N[C@@H](CCCNC(=N)N)C(=O)N[C@@H](Cc1ccccc1)C(=O)NCC(=O)O)C(C)C [CTX-1181, Nle-D-Val-His-Phe-Arg-D-Trp-Asp-Arg-Phe-Gly] (Ac-[Nle][dV]HFR[dW]DRFG-OH) | 718 |
| CCCC[C@H](NC(C)=O)C(=O)N[C@H](CCCC)C(=O)N[C@@H](Cc1c[nH]cn1)C(=O)N[C@@H](Cc1ccccc1)C(=O)N[C@@H](CCCNC(=N)N)C(=O)N[C@H](Cc1c[nH]c2ccccc12)C(=O)N[C@@H](CC(=O)O)C(=O)N[C@@H](CCCNC(=N)N)C(=O)N[C@@H](Cc1ccccc1)C(=O)NCC(=O)O [CTX-1182, Nle-D-Nle-His-Phe-Arg-D-Trp-Asp-Arg-Phe-Gly] (Ac-[Nle][dNle]HFR[dW]DRFG-OH) | 1406 |
| CCCC[C@H](NC(C)=O)C(=O)N(C)[C@H](C)C(=O)N[C@@H](Cc1c[nH]cn1)C(=O)N[C@@H](Cc1ccccc1)C(=O)N[C@@H](CCCNC(=N)N)C(=O)N[C@H](Cc1c[nH]c2ccccc12)C(=O)N[C@@H](CC(=O)O)C(=O)N[C@@H](CCCNC(=N)N)C(=O)N[C@@H](Cc1ccccc1)C(=O)NCC(=O)O [CTX-1183, Nle-NMe-D-Ala-His-Phe-Arg-D-Trp-Asp-Arg-Phe-Gly] (Ac-[Nle][dNMeA]HFR[dW]DRFG-OH) | 515 |
| CCCC[C@H](NC(C)=O)C(=O)N1CCC[C@@H]1C(=O)N[C@@H](Cc1c[nH]cn1)C(=O)N[C@@H](Cc1ccccc1)C(=O)N[C@@H](CCCNC(=N)N)C(=O)N[C@H](Cc1c[nH]c2ccccc12)C(=O)N[C@@H](CC(=O)O)C(=O)N[C@@H](CCCNC(=N)N)C(=O)N[C@@H](Cc1ccccc1)C(=O)NCC(=O)O [CTX-1184, Nle-D-Pro-His-Phe-Arg-D-Trp-Asp-Arg-Phe-Gly] (Ac-[Nle][dP]HFR[dW]DRFG-OH) | 28 |
